According to PubChem BioAssay (NCI):
“And” between values parts separate entries of the source, which are not always exact repeats. Equal entries are not always repeated.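 Assay format: 96-well plates, 48-hour exposure. Abbreviation: GI50, concentration required for 50% inhibition of growth. Definition used: TGI = concentration required for complete inhibition of growth.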

Assays:
Assay in all cases: NCI anticancer screen, dose series, 48 h
MDA-MB-468 breast = tested on: MDA-MB-468 breast
CAKI-1 renal = tested on: CAKI-1 renal
MALME-3M melanoma = tested on: MALME-3M melanoma
EKVX NSCLC = tested on: EKVX NSCLC
OVCAR-4 ovarian = tested on: OVCAR-4 ovarian
786-0 renal = tested on: 786-0 renal
UACC-257 melanoma = tested on: UACC-257 melanoma
OVCAR-5 ovarian = tested on: OVCAR-5 ovarian
HOP-62 NSCLC = tested on: HOP-62 NSCLC
PC-3 prostate = tested on: PC-3 prostate
SK-MEL-28 melanoma = tested on: SK-MEL-28 melanoma
NCI-H226 lung = tested on: NCI-H226 lung
HCT-15 colon = tested on: HCT-15 colon
A549 NSCLC = tested on: A549 NSCLC
KM12 colon = tested on: KM12 colon
K-562 leukemia = tested on: K-562 leukemia
LOX IMVI melanoma = tested on: LOX IMVI melanoma
NCI/ADR-RES ovarian = tested on: NCI/ADR-RES ovarian
NCI-H460 lung = tested on: NCI-H460 lung
HL-60(TB) leukemia = tested on: HL-60(TB) leukemia
HCT-116 colon = tested on: HCT-116 colon
HS 578T breast = tested on: HS 578T breast
SK-OV-3 ovarian = tested on: SK-OV-3 ovarian
UACC-62 melanoma = tested on: UACC-62 melanoma
UO-31 renal = tested on: UO-31 renal
MDA-MB-231 breast = tested on: MDA-MB-231 breast
MOLT-4 leukemia = tested on: MOLT-4 leukemia
OVCAR-3 ovarian = tested on: OVCAR-3 ovarian
SK-MEL-5 melanoma = tested on: SK-MEL-5 melanoma
OVCAR-8 ovarian = tested on: OVCAR-8 ovarian
CCRF-CEM leukemia = tested on: CCRF-CEM leukemia
BT-549 breast = tested on: BT-549 breast
NCI-H23 lung = tested on: NCI-H23 lung
RPMI-8226 leukemia = tested on: RPMI-8226 leukemia
M14 melanoma = tested on: M14 melanoma
HCC-2998 colon = tested on: HCC-2998 colon
SF-539 CNS = tested on: SF-539 CNS
U251 CNS = tested on: U251 CNS
MCF7 breast = tested on: MCF7 breast
SNB-19 CNS = tested on: SNB-19 CNS
SF-295 CNS = tested on: SF-295 CNS
SR leukemia = tested on: SR leukemia
NCI-H522 lung = tested on: NCI-H522 lung
SK-MEL-2 melanoma = tested on: SK-MEL-2 melanoma
TK-10 renal = tested on: TK-10 renal
HOP-92 NSCLC = tested on: HOP-92 NSCLC
A498 renal = tested on: A498 renal
MDA-MB-435 = tested on: MDA-MB-435
RXF 393 renal = tested on: RXF 393 renal
SNB-75 CNS = tested on: SNB-75 CNS
SF-268 CNS = tested on: SF-268 CNS
COLO 205 colon = tested on: COLO 205 colon
ACHN renal = tested on: ACHN renal
DU-145 prostate = tested on: DU-145 prostate
IGROV1 ovarian = tested on: IGROV1 ovarian
SW-620 colon = tested on: SW-620 colon
SN12C renal = tested on: SN12C renal
T-47D breast = tested on: T-47D breast

COc1cc(C2c3cc4c(cc3C(OC(=O)C[n+]3ccccc3)C3COC(=O)C23)OCO4)cc(OC)c1OC (stereo not drawn)
GI50 (MDA-MB-468 breast): 0.0242 µM | TGI (MDA-MB-468 breast): 0.0777 µM

Cc1cc(-c2cc(O)ccc2Cl)cc2nnc(Nc3ccc(OCCN4CCCC4)cc3)nc12
GI50 (MDA-MB-468 breast): 0.583 µM | TGI (MDA-MB-468 breast): 2.04 µM

CN1CCN(Cc2ccc(NC(=O)c3cncc(C#Cc4cnc(N)c5cccnc45)c3)cc2C(F)(F)F)CC1
GI50 (MDA-MB-468 breast): 0.698 µM | TGI (MDA-MB-468 breast): > 50 µM

CCNC(=O)Oc1ccc(/C(=C(/C)Cc2ccc(OC)cc2)c2ccc(OCCN(CC)CC)cc2)cc1
GI50 (MDA-MB-468 breast): 1.63 µM | TGI (MDA-MB-468 breast): 3.46 µM

CN1C(=O)[C@]23SSC1(C)C(=O)N2[C@H]1Nc2ccccc2C1([C@@]12c4ccccc4N[C@@H]1N1C(=O)C4(C)SS[C@]1(C(=O)N4C)[C@H]2O)[C@@H]3O (stereo partly drawn)
GI50 (MDA-MB-468 breast): 0.0351 µM and 0.115 µM | TGI (MDA-MB-468 breast): 0.103 µM and 0.322 µM

Cc1cc(C)c(-c2c(N)cc(Br)cc2Br)c(N)c1
GI50 (MDA-MB-468 breast): 2.24 µM | TGI (MDA-MB-468 breast): 5.76 µM

O=C(COc1ccc(NC(=O)Nc2ccccc2)cc1)N=Nc1c(O)[nH]c2ccc([N+](=O)[O-])cc12
GI50 (CAKI-1 renal): 47.7 µM | TGI (CAKI-1 renal): > 100 µM | GI50 (MALME-3M melanoma): 1.63 µM | TGI (MALME-3M melanoma): 3.07 µM | GI50 (EKVX NSCLC): 5.02 µM | TGI (EKVX NSCLC): 45.7 µM | GI50 (OVCAR-4 ovarian): 1.84 µM | TGI (OVCAR-4 ovarian): 3.96 µM | GI50 (786-0 renal): 5.69 µM | TGI (786-0 renal): 23.8 µM | GI50 (UACC-257 melanoma): 2.01 µM | TGI (UACC-257 melanoma): 4.91 µM | GI50 (OVCAR-5 ovarian): 4.11 µM | TGI (OVCAR-5 ovarian): > 100 µM | GI50 (HOP-62 NSCLC): 2.42 µM | TGI (HOP-62 NSCLC): 7.08 µM | GI50 (PC-3 prostate): 2.05 µM | TGI (PC-3 prostate): 4.76 µM | GI50 (SK-MEL-28 melanoma): 1.79 µM | TGI (SK-MEL-28 melanoma): 3.65 µM | GI50 (NCI-H226 lung): 2.31 µM | TGI (NCI-H226 lung): 5.94 µM | GI50 (HCT-15 colon): 99.8 µM | TGI (HCT-15 colon): > 100 µM | GI50 (A549 NSCLC): > 100 µM | TGI (A549 NSCLC): > 100 µM | GI50 (KM12 colon): 1.95 µM | TGI (KM12 colon): 3.96 µM | GI50 (K-562 leukemia): 3.02 µM | TGI (K-562 leukemia): 7.65 µM | GI50 (LOX IMVI melanoma): 1.7 µM | TGI (LOX IMVI melanoma): 3.15 µM | GI50 (NCI/ADR-RES ovarian): > 100 µM | TGI (NCI/ADR-RES ovarian): > 100 µM | GI50 (NCI-H460 lung): 1.89 µM | TGI (NCI-H460 lung): 4.58 µM | GI50 (HL-60(TB) leukemia): 8.08 µM | TGI (HL-60(TB) leukemia): > 100 µM | GI50 (HCT-116 colon): 1.72 µM | TGI (HCT-116 colon): 3.13 µM | GI50 (HS 578T breast): 2.09 µM | TGI (HS 578T breast): 5.8 µM | GI50 (SK-OV-3 ovarian): 5.45 µM | TGI (SK-OV-3 ovarian): 21 µM | GI50 (UACC-62 melanoma): 1.83 µM | TGI (UACC-62 melanoma): 3.92 µM | GI50 (UO-31 renal): > 100 µM | TGI (UO-31 renal): > 100 µM | GI50 (MDA-MB-231 breast): 1.82 µM | TGI (MDA-MB-231 breast): 3.41 µM | GI50 (MOLT-4 leukemia): 2.37 µM | TGI (MOLT-4 leukemia): 5.08 µM | GI50 (OVCAR-3 ovarian): 1.66 µM | TGI (OVCAR-3 ovarian): 3.18 µM | GI50 (SK-MEL-5 melanoma): 2.15 µM | TGI (SK-MEL-5 melanoma): 5.09 µM | GI50 (OVCAR-8 ovarian): 1.89 µM | TGI (OVCAR-8 ovarian): 3.75 µM | GI50 (CCRF-CEM leukemia): 2.45 µM | TGI (CCRF-CEM leukemia): 6.17 µM | GI50 (BT-549 breast): 1.89 µM | TGI (BT-549 breast): 5.37 µM | GI50 (NCI-H23 lung): 2.09 µM | TGI (NCI-H23 lung): 4.27 µM | GI50 (RPMI-8226 leukemia): 5.39 µM | TGI (RPMI-8226 leukemia): > 100 µM | GI50 (M14 melanoma): 2.86 µM | TGI (M14 melanoma): 11.3 µM | GI50 (HCC-2998 colon): 2.24 µM | TGI (HCC-2998 colon): 5.15 µM | GI50 (SF-539 CNS): 1.67 µM | TGI (SF-539 CNS): 3.14 µM | GI50 (U251 CNS): 1.71 µM | TGI (U251 CNS): 3.12 µM | GI50 (MCF7 breast): 1.94 µM | TGI (MCF7 breast): 4.02 µM | GI50 (SNB-19 CNS): 1.98 µM | TGI (SNB-19 CNS): 4.55 µM | GI50 (SF-295 CNS): 6.27 µM | TGI (SF-295 CNS): 32.8 µM | GI50 (SR leukemia): 2.65 µM | TGI (SR leukemia): 6.32 µM | GI50 (NCI-H522 lung): 1.61 µM | TGI (NCI-H522 lung): 3.15 µM | GI50 (SK-MEL-2 melanoma): 1.76 µM | TGI (SK-MEL-2 melanoma): 3.46 µM | GI50 (TK-10 renal): 17.3 µM | TGI (TK-10 renal): 38.4 µM | GI50 (HOP-92 NSCLC): 1.76 µM | TGI (HOP-92 NSCLC): 3.39 µM | GI50 (A498 renal): 11.4 µM | TGI (A498 renal): 32.5 µM | GI50 (MDA-MB-435): 1.71 µM | TGI (MDA-MB-435): 3.26 µM | GI50 (RXF 393 renal): 2.31 µM | TGI (RXF 393 renal): 6.01 µM | GI50 (SNB-75 CNS): 1.46 µM | TGI (SNB-75 CNS): 3.39 µM | GI50 (SF-268 CNS): 1.91 µM | TGI (SF-268 CNS): 4.08 µM | GI50 (COLO 205 colon): 1.94 µM | TGI (COLO 205 colon): 3.55 µM | GI50 (ACHN renal): 29.3 µM | TGI (ACHN renal): > 100 µM | GI50 (MDA-MB-468 breast): 1.85 µM | TGI (MDA-MB-468 breast): 3.31 µM | GI50 (DU-145 prostate): 3.88 µM | TGI (DU-145 prostate): > 100 µM | GI50 (IGROV1 ovarian): 3.43 µM | TGI (IGROV1 ovarian): 15.5 µM | GI50 (SW-620 colon): 1.69 µM | TGI (SW-620 colon): 3.83 µM | GI50 (SN12C renal): 1.65 µM | TGI (SN12C renal): 3.3 µM | GI50 (T-47D breast): 1.71 µM | TGI (T-47D breast): 3.6 µM
